Legend:
[1] = literature; cited from earlier work
[2] = test system: MOLP8 multiple myeloma cells; experiment: MOLP8 xenograft, combination BT062 and VELCADE; type: in vivo, mice
Description: The ACTIVITY RATING is another measurement for the effects of a combination. This rating is based on the Log10 cell kill
where (T-C) or tumor growth delay, is the median time in days required for the treatment group (T) and the control group (C) tumours, to reach a predetermined size (600 mm^3).

[3] = test system: human derived breast cancer model with CD138 IHC score 2-3; experiment: Breast cancer model, CD138 IHC score 2-3; type: in vivo, NMRI nude mice; settings: 10 mg/kg
Description: The results are shown in terms of the effect on the mean relative tumor volume in the model relative to an intravenous administration of PBS. For the calculation of the median relative tumor volume on day, see FIG. 33.

[4] = test system: human derived breast cancer model with CD138 IHC score 1-2; experiment: Breast cancer model, CD138 IHC score 1-2; type: in vivo, NMRI nude mice; settings: 10 mg/kg
Description: No difference in the treatment regimens was observed. The results are shown in terms of the effect on the mean relative tumor volume in the model relative to an intravenous administration of PBS. For the calculation of the median relative tumor volume on day, see FIG. 33.

primary pancreatic tumor = experiment: Example 9 xenograft (FIG. 38); type: in vivo, NMRI (nude) mice; settings: 10 mg/kg; treatment period and treatment free period
Description: The results are shown in terms of the effect on the mean relative tumor volume.

[5] = test system: primary mammary tumor of a patient; experiment: Mammary carcinoma xenograft; type: in vivo, NMRI (nude) mice
[6] = Clinical trials of other immunoconjugates (literature); type: in vivo, human; settings: assuming 70 kg and 1.9 m^2 body surface area
[7] = cited from earlier work
RPMI 8226 = experiment: Synergy determination in cell lines (Chou and Talalay); type: cell-based; settings: drug in combination with BT062
Protocol: Combination studies in xenograph mouse models were preceded by studies in cell lines. […] Here, IC50 values for the cytotoxic effects for each drug and each cell line are calculated, and then IC50 ratios for each drug pair. The cells were then exposed to dilution series of either these drug mixtures, or the drugs alone. Experimental data were analyzed using the CompuSyn software (ComboSyn, Inc., Paramus, N.J.). Combination Indexes (CI) for each independent experiment were calculated and reported separately. In the analysis, CI less than 1, equal to 1 and more than 1 indicates synergy, additivity and antagonism, respectively. According to the classification of T. C.

CD138 expression = experiment: Effect of lenalidomide on CD138 expressing cells in vitro; settings: different cell lines, 24 h incubation (FIG. 32)

Molecule: COc1cc2cc(c1Cl)N(C)C(=O)C[C@H](OC(=O)[C@H](C)N(C)C(=O)CCS)[C@]1(C)O[C@H]1[C@H](C)[C@@H]1C[C@@](O)(NC(=O)O1)[C@H](OC)/C=C/C=C(\C)C2 [DM1, N^2-deacetyl-N^2-(3-mercapto-1-oxopropyl)-maytansine]
- cytotoxicity, fold more cytotoxic than maytansine [1]: 3- to 10 fold

Molecule: CC(C)C[C@H](NC(=O)[C@H](Cc1ccccc1)NC(=O)c1cnccn1)B(O)O [Velcade, bortezomib, reference compound]
- effect on the tumor volume ([2]; VELCADE treatment alone (FIG. 31)): no effect
- Tumor free survivors day 67 ([2]; Velcade 1 mg/kg): 0/6
- log cell kill ([2]; Velcade 1 mg/kg): 0.0

Molecule: CC(=O)O[C@@]12CO[C@@H]1C[C@H](O)[C@@]1(C)C(=O)[C@H](O)C3=C(C)[C@@H](OC(=O)[C@H](O)[C@@H](NC(=O)OC(C)(C)C)c4ccccc4)C[C@@](O)([C@@H](OC(=O)c4ccccc4)[C@H]21)C3(C)C [Docetaxel, reference compound]
- tumor response [3]: response
- tumor response [4]: did not respond
- tumor response (primary pancreatic tumor): complete remission

Molecule: COc1cc2cc(c1Cl)N(C)C(=O)C[C@H](OC(=O)[C@H](C)N(C)C(=O)CCC(C)(C)S)[C@]1(C)O[C@H]1[C@H](C)[C@@H]1C[C@@](O)(NC(=O)O1)[C@H](OC)/C=C/C=C(\C)C2 [DM4, N^2′-deacetyl-N^2′-(4-methyl-4-mercapto-1-oxopentyl)-maytansine, reference compound]
- tumor response ([5]; amount corresponding to that in 4 mg BT062): did not result in tumor response

Molecule: SGN-35
- Corresponds to total concentration of [6]: 84 mg
- Once weekly regimen, dose administered ([7]; literature): Up to 1.2 mg/kg

Molecule: COc1cc2cc(c1Cl)N(C)C(=O)C[C@H](OC(=O)[C@H](C)N(C)C(C)=O)[C@]1(C)O[C@H]1[C@H](C)[C@@H]1C[C@@](O)(NC(=O)O1)[C@H](OC)/C=C/C=C(\C)C2 [maytansine]
- cytotoxicity, fold higher than Vinca alkaloids or taxol [1]: 200-1000 fold

Molecule: Nc1cccc2c1CN(C1CCC(=O)NC1=O)C2=O (centres unmarked) [Lenalidomide]
- Estimate of synergistic result (RPMI 8226): Synergistic
- CD138 expression (CD138 expression): concentration dependent CD138 decrease

Molecule: SAR3419
- Corresponds to total concentration of [6]: 110 mg
- patients with a response ([7]; 22 patients at the MTD (55 mg/m^2)): 36%
- patients achieving an objective response ([7]; 38 patients at 20 mg/m^2 or higher, weekly, B-cell NHL): 32%
- MTD, single administration every three weeks ([7]; literature): 160 mg/m^2

Molecule: CC(=O)O[C@H]1C(=O)[C@@]2(C)[C@H]([C@H](OC(=O)c3ccccc3)[C@]3(O)C[C@H](OC(=O)[C@H](O)[C@@H](NC(=O)c4ccccc4)c4ccccc4)C(C)=C1C3(C)C)[C@]1(OC(C)=O)CO[C@@H]1C[C@@H]2O [Taxol, Paclitaxel, reference compound]
- tumor response ([5]; 10 mg/kg): only a minor tumor growth delay

B1: SGN-75: anti-CD70; MMAF (SEATTLE GENETICS) (conjugate, chains of the INN, looked up)
VH: QVQLVQSGAEVKKPGASVKVSCKASGYTFTNYGMNWVRQAPGQGLKWMGWINTYTGEPTYADAFKGRVTMTRDTSISTAYMELSRLRSDDTAVYYCARDYGDYGMDYWGQGTTVTVSS
VL: DIVMTQSPDSLAVSLGERATINCRASKSVSTSGYSFMHWYQQKPGQPPKLLIYLASNLESGVPDRFSGSGSGTDFTLTISSLQAEDVAVYYCQHSREVPWTFGQGTKVEIK
modifications: MMAF conjugate
- MTD, once weekly regimen ([7]; literature): not been reached)

B2: IMGN242: analog of cantuzumab mertansine, huC242-DM4 (conjugate, chains of the INN, looked up)
VH: QVQLVQSGAEVKKPGETVKISCKASDYTFTYYGMNWVKQAPGQGLKWMGWIDTTTGEPTYAQKFQGRIAFSLETSASTAYLQIKSLKSEDTATYFCARRGPYNWYFDVWGQGTTVTVSS
VL: DIVMTQSPLSVPVTPGEPVSISCRSSKSLLHSNGNTYLYWFLQRPGQSPQLLIYRMSNLVSGVPDRFSGSGSGTAFTLRISRVEAEDVGVYYCLQHLEYPFTFGPGTKLELK
modifications: DM4 maytansinoid conjugate
- subjects experiencing dose-limiting toxicity ([7]; 223 mg/m^2 once every 3 weeks, second cycle): 2 of 6

— US20190117770A1, “USES OF IMMUNOCONJUGATES TARGETING CD138” (Biotest AG, priority 2011, published 2019)
